Results: the supplement of paper PMC4862054

Legend:
BT-474 [1] = conditions: 72 h
How it was run: (§1)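 The plates used were 384-well plates holding compound at 5 concentrations in 10-fold steps across a compound-specific 10,000-fold range, into which breast cancer cell lines were seeded in 20 µl suspension. Following 72 h incubation, CellTox Green fluorescence was read at 485/520 nm, and CellTiter-Glo luminescence was read after 10 min at room temperature. Normalisation on each plate used 0.1 % DMSO and a positive kill control. Dose-response curves gave the EC50, which was censored at the top concentration.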

HDQ-P1 [2] = conditions: 72 h
How it was run: as §1

MDA-MB-468 [3] = conditions: 72 h
How it was run: as §1

BT-474 [4] = experiment: normalised viability (% of control), CellTiter-Blue; higher = more viable cells (about 100 = DMSO control); conditions: incubation time: 72 h
How it was run: (§2)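 Vehicle (100) and a positive kill control (0) anchored the normalisation of each plate, and Z'-factor was used for quality control. Breast cancer cell lines in 20 µl suspension were incubated 72 h over compound in 5 µl medium in 384-well plates, followed by CellTiter-Blue at 560/590 nm. The value is normalised viability at a single listed concentration of the series.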

BT-549 = experiment: as above; conditions: incubation time: 72 h
How it was run: as §2

CAL-120 = experiment: as above; conditions: incubation time: 72 h
How it was run: as §2

CAL-148 = experiment: as above; conditions: incubation time: 72 h
How it was run: as §2

CAL-51 = experiment: as above; conditions: incubation time: 72 h
How it was run: as §2

CAL-85-1 = experiment: as above; conditions: incubation time: 72 h
How it was run: as §2

DU-4475 = experiment: as above; conditions: incubation time: 72 h
How it was run: as §2

HCC1143 = experiment: as above; conditions: incubation time: 72 h
How it was run: as §2

HCC1937 = experiment: as above; conditions: incubation time: 72 h
How it was run: as §2

HDQ-P1 [5] = experiment: as above; conditions: incubation time: 72 h
How it was run: as §2

Hs578T = experiment: as above; conditions: incubation time: 72 h
How it was run: as §2

MDA-MB-231 = experiment: as above; conditions: incubation time: 72 h
How it was run: as §2

MDA-MB-453 = experiment: as above; conditions: incubation time: 72 h
How it was run: as §2

MDA-MB-468 [6] = experiment: as above; conditions: incubation time: 72 h
How it was run: as §2

MFM-223 = experiment: as above; conditions: incubation time: 72 h
How it was run: as §2

SK-BR-3 = experiment: as above; conditions: incubation time: 72 h
How it was run: as §2

COc1cc2c(cc1O)CC[C@@H]1[C@@H]2CC[C@]2(C)[C@@H](O)CC[C@@H]12 [2-methoxyestradiol]
Conditions	EC50, CellTiter-Glo [µM]
BT-474 [1]	0.573
HDQ-P1 [2]	7.46
MDA-MB-468 [3]	2.8

normalised viability [%]
Conditions	3 nM	10 nM	30 nM	100 nM	1000 nM	10000 nM
BT-474 [4]	–	133	–	–	64.3	48.5
BT-549	–	89.1	–	–	51.7	17.6
CAL-51	122	–	114	106	–	–
CAL-85-1	91.4	–	85.5	94.5	–	–
CAL-120	–	105	–	–	61.4	24.2
CAL-148	89.8	–	89.5	86	–	–
DU-4475	108	–	102	109	–	–
HCC1143	–	92.4	–	–	82.7	37.1
HCC1937	–	113	–	–	54.3	26.8
HDQ-P1 [5]	103	–	93.9	93.2	–	–
Hs578T	–	114	–	–	67.5	16.2
MDA-MB-231	–	83.9	–	–	44.8	30.5
MDA-MB-453	114	–	87.5	96.7	–	–
MDA-MB-468 [6]	–	111	–	–	97.2	50.1
MFM-223	–	98.8	–	–	74.9	99.2
SK-BR-3	–	97.6	–	–	101	20.2

Cc1sc2c(c1C)C(c1ccc(Cl)cc1)=N[C@@H](CC(=O)OC(C)(C)C)c1nnc(C)n1-2 [(+)JQ1]
Conditions	EC50, CellTiter-Glo [µM]
BT-474 [1]	0.113
HDQ-P1 [2]	0.129
MDA-MB-468 [3]	0.487

normalised viability [%]
Conditions	3 nM	10 nM	30 nM	100 nM	1000 nM	10000 nM
BT-474 [4]	–	118	–	–	95.1	102
BT-549	–	108	–	–	53.8	36.9
CAL-51	100	–	96.9	104	–	–
CAL-85-1	93.2	–	82.6	80	–	–
CAL-120	–	83.2	–	–	47.7	49.2
CAL-148	95.7	–	103	97.3	–	–
DU-4475	104	–	77.6	90.1	–	–
HCC1143	–	91.1	–	–	67.6	58.7
HCC1937	–	109	–	–	62.9	55.9
HDQ-P1 [5]	102	–	113	107	–	–
Hs578T	–	100	–	–	61.4	44.8
MDA-MB-231	–	107	–	–	32.8	35.9
MDA-MB-453	111	–	107	84.5	–	–
MDA-MB-468 [6]	–	107	–	–	71.8	52.2
MFM-223	–	99.3	–	–	54	45.4
SK-BR-3	–	117	–	–	53.9	51.8

CC(C)(C)c1cnc(CSc2cnc(NC(=O)C3CCNCC3)s2)o1 [SNS-032]
Conditions	EC50, CellTiter-Glo [µM]
BT-474 [1]	0.112
HDQ-P1 [2]	0.05
MDA-MB-468 [3]	0.036

normalised viability [%]
Conditions	3 nM	10 nM	30 nM	100 nM	1000 nM	10000 nM
BT-474 [4]	–	119	–	–	26.5	35
BT-549	–	94.8	–	–	11.6	9.46
CAL-51	113	–	107	107	–	–
CAL-85-1	88.8	–	78.5	70.1	–	–
CAL-120	–	84.1	–	–	12.9	11.8
CAL-148	91.9	–	99.5	77.1	–	–
DU-4475	101	–	86.9	87.5	–	–
HCC1143	–	79.7	–	–	17.5	16.6
HCC1937	–	138	–	–	23.1	17.1
HDQ-P1 [5]	113	–	93.5	63	–	–
Hs578T	–	104	–	–	5.65	4
MDA-MB-231	–	106	–	–	8.24	7.03
MDA-MB-453	118	–	92.7	70.8	–	–
MDA-MB-468 [6]	–	114	–	–	11.3	5.84
MFM-223	–	87.9	–	–	14.2	20
SK-BR-3	–	98.4	–	–	5.34	4.75

Nc1nc2[nH]cnc2c(=S)[nH]1 [Thioguanine]
Conditions	EC50, CellTiter-Glo [µM]
BT-474 [1]	0.197
HDQ-P1 [2]	2.97
MDA-MB-468 [3]	9.67

normalised viability [%]
Conditions	3 nM	10 nM	30 nM	100 nM	1000 nM	10000 nM
BT-474 [4]	–	112	–	–	113	102
BT-549	–	94	–	–	106	49
CAL-51	114	–	109	109	–	–
CAL-85-1	111	–	97.4	104	–	–
CAL-120	–	94.1	–	–	67.2	34.9
CAL-148	105	–	116	102	–	–
DU-4475	120	–	112	116	–	–
HCC1143	–	92.6	–	–	103	82.9
HCC1937	–	76.3	–	–	86.1	40.4
HDQ-P1 [5]	117	–	127	101	–	–
Hs578T	–	137	–	–	96.4	32.9
MDA-MB-231	–	92.7	–	–	58.4	56
MDA-MB-453	132	–	102	98.6	–	–
MDA-MB-468 [6]	–	104	–	–	62.1	44.4
MFM-223	–	89.4	–	–	88.6	82.2
SK-BR-3	–	99.7	–	–	103	49.6

Nc1ncn([C@@H]2O[C@H](CO)[C@@H](O)[C@H]2O)c(=O)n1 [Azacitidine]
Conditions	EC50, CellTiter-Glo [µM]
BT-474 [1]	2.29
HDQ-P1 [2]	2.47
MDA-MB-468 [3]	0.574

normalised viability [%]
Conditions	3 nM	10 nM	30 nM	100 nM	1000 nM	10000 nM
BT-474 [4]	–	104	–	–	102	95
BT-549	–	115	–	–	95.4	48.7
CAL-51	102	–	104	104	–	–
CAL-85-1	98.5	–	97.8	92.6	–	–
CAL-120	–	80.9	–	–	88.9	60.9
CAL-148	83.8	–	85.2	89.3	–	–
DU-4475	97.2	–	116	117	–	–
HCC1143	–	72.6	–	–	83.8	62.3
HCC1937	–	94	–	–	74.4	56.9
HDQ-P1 [5]	141	–	104	96	–	–
Hs578T	–	98.4	–	–	90.2	36
MDA-MB-231	–	81.1	–	–	85.4	69.9
MDA-MB-453	104	–	109	102	–	–
MDA-MB-468 [6]	–	110	–	–	40.7	20.9
MFM-223	–	100	–	–	95.5	59.4
SK-BR-3	–	92	–	–	106	66.6
